Patent publication US8350076B2, “Sodium channel blockers” (University of Virginia Patent Foundation, priority 2002, dated 2013)
Like-named read-outs stand apart in the source and are kept apart here. Marks after values point to notes of the source that are not given here.

Columns and labels:
C4-2 cells = assay: Long-term growth assay (crystal violet), C4-2; type: cell-based, human; settings: for growth of C4-2 cells (in words): 40 μM, 7 days with drug; for IC50: Homo sapiens, C4-2, 120 h, day 5, read-out: Day Five Effects on Cell line IC50 (μM) ± S.E.M., C4-2
Description: (§1) C4-2 cells were plated at cell densities established previously to reach saturation at day 7. The cells were allowed to recover overnight before a media change with the analogues (all at 40 μM) was performed. The assays were terminated at day 1, 3, 5 and 7. Media changes were performed on day 0, 2, 4 and 6 with fresh analogues added each time. The cells were then fixed with glutaraldehyde and stained with crystal violet. The dye is then eluted in Sorenson's solution and the absorbance read at 540 nm. […] These assays were repeated for DU145, PC-3 and the paired metastatic cell line PC-3M. The data were normalized to the day 7 DMSO control for each cell line to allow for direct cell:cell comparison.

PC-3 cells [1] = assay: 3H-thymidine uptake (DNA synthesis) in PC-3 cells; type: cell-based, human; settings: for inhibition at 1 µM / inhibition at 10 µM / inhibition at 20 µM / inhibition at 40 µM / inhibition at 100 µM: Homo sapiens, read-out: % Inhibition of PC3 Cells; for inhibition at 1 µM: PC-3, 1 μM; for inhibition at 10 µM: PC-3, 10 μM; for inhibition at 20 µM: PC-3, 20 μM; for inhibition at 40 µM: PC-3, 40 μM; for inhibition at 100 µM: PC-3, 100 μM; for effect on DNA synthesis (in words): dosages tested 1-100 μM
Description: The novel sodium channel blockers were assayed for activity against paired sets of cell lines with increasing metastatic potential, PC-3 and PC-3M (already androgen independent, AI), or increasing metastatic potential with increasing androgen independence, LNCaP and C4-2. DU145 was also included to provide another AI cell line with intermediate tumorigenicity between the LNCaP series and the PC-3 derivatives. This strategy allows an examination of at least three different genotypes for comparison of drug efficacy. […] The first assay used to screen these compounds was 3H-thymidine uptake in PC-3 cells. The cells were trypsinized, equal cell numbers were placed into each well and allowed to recover overnight.

[2] = test system: anchorage-independent colony formation; assay: Soft agarose colony formation (SACF), 3-D growth; type: cell-based; settings: for inhibition in 3-D growth (SACF) as compared to phenytoin: same concentration as 2-D
[3] = target: sodium channel (BTX site 2); assay: 3H-BTX-B binding inhibition; settings: for IC50: 3H-BTX-B Inhibition Data
Description: One assay used to screen compounds for modulators of sodium channel activity, is based on the use of the radioligand 3-[H]-BTX-B assay. BTX binds to site 2 on the channel protein and thus compounds that can compete with or inhibit BTX binding to the sodium channel are potential sodium channel inhibitors. This assay represents a facile tool to prescreen sodium channel binding before evaluating compounds in more rigorous functional assays such as through electrophysiology.

[4] = test system: PSA secretion by PCa C4-2 cells; assay: PSA secretion by PCa C4-2 cells; type: cell-based, human; settings: for decrease of PSA secretion on a per cell basis: 40 μM
Description: PSA levels are clinically important in following tumor progression and burden. Sodium channel blockers 1, 2 and 44 (at 40 μM) and phenyloin at (100 μM) were investigated for their ability to suppress PSA secretion by PCa C4-2 cells.

Nav1.5 = Nav1.5 (Homo sapiens, UniProt Q14524); assay: Electrophysiology, sodium currents in CHO cells stably expressing Nav1.5
Nav1.5, sequence (Q14524 whole entry): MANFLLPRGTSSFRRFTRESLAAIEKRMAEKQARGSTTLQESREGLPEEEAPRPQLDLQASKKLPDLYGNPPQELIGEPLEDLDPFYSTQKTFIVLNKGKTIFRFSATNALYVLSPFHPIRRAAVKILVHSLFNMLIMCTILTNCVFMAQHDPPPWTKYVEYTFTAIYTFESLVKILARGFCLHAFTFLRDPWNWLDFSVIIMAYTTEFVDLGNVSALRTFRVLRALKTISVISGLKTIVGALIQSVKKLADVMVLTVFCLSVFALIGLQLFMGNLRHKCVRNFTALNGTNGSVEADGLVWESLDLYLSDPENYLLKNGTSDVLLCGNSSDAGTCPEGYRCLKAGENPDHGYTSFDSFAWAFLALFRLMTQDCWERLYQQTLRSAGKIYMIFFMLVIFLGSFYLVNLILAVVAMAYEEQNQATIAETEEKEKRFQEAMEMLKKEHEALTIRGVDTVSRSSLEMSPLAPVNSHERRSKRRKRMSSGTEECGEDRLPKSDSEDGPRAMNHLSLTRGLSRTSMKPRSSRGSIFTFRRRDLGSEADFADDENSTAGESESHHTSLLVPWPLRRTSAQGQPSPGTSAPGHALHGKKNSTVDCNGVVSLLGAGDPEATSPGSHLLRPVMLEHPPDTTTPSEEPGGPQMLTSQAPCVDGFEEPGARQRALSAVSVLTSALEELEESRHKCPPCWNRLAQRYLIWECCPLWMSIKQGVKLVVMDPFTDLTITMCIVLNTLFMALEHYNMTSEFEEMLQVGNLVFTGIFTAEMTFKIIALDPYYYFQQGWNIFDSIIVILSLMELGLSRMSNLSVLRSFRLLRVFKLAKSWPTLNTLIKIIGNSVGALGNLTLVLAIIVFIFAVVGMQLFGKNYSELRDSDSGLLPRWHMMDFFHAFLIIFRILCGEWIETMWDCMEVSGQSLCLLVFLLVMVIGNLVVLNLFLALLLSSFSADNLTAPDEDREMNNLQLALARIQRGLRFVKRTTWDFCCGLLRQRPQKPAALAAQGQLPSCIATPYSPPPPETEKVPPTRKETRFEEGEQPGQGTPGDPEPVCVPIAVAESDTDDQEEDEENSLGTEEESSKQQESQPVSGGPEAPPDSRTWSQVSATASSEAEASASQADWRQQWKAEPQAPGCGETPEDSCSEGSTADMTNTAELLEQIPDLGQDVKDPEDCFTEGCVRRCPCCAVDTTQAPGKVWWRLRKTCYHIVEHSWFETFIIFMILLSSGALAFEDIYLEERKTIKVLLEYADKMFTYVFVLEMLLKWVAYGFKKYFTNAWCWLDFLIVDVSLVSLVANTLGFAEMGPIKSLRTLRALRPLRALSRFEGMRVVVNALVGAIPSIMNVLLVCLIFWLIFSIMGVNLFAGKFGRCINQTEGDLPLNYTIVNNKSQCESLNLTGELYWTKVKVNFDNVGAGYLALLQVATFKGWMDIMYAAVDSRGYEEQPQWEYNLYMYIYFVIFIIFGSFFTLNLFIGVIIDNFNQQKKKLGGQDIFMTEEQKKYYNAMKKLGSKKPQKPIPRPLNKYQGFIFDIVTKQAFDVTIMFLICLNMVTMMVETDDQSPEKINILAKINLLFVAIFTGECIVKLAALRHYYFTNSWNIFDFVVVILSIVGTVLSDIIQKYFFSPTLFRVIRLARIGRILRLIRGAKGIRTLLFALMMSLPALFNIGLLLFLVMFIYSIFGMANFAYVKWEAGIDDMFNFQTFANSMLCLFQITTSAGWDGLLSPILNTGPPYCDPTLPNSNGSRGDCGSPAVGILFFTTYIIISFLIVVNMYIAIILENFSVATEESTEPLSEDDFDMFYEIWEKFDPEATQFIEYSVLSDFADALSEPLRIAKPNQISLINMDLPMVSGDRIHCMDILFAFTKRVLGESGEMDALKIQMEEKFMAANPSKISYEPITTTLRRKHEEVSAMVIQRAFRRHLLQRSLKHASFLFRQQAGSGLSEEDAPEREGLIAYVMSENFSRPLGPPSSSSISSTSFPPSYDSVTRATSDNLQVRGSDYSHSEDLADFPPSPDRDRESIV

DU-145 = assay: Long-term growth assay (crystal violet), DU-145; type: cell-based; settings: Homo sapiens, DU-145, 120 h; day 5; read-out: Day Five Effects on Cell line IC50 (μM) ± S.E.M., DU-145
Description: as §1

LNCaP = assay: Long-term growth assay (crystal violet), LNCaP; type: cell-based; settings: Homo sapiens, 120 h, day 5, read-out: Day Five Effects on Cell line IC50 (μM) ± S.E.M., LNCaP
[5] = test system: all PCa cell lines tested (C4-2, DU145, PC-3, PC-3M); assay: Long-term growth assay, panel of PCa cell lines; type: cell-based, human
Description: as §1

PC-3M = assay: Long-term growth assay (crystal violet), PC-3M; type: cell-based; settings: Homo sapiens, 120 h, day 5, read-out: Day Five Effects on Cell line IC50 (μM) ± S.E.M., PC-3M
Description: as §1

PC3 = assay: Long-term growth assay (crystal violet), PC3; type: cell-based; settings: Homo sapiens, PC-3, 120 h; day 5; read-out: Day Five Effects on Cell line IC50 (μM) ± S.E.M., PC3
Description: as §1

cell growth in 2-D = assay: 2-D growth assay; type: cell-based; settings: molar equivalence to the phenytoin IC50
PC-3 cells [6] = settings: cited from earlier work
MAT-LyLu cells = settings: 6 µM; cited from earlier work

SMILES | inhibition at 1 µM (PC-3 cells [1]) | inhibition at 10 µM (PC-3 cells [1]) | inhibition at 20 µM (PC-3 cells [1]) | inhibition at 40 µM (PC-3 cells [1]) | inhibition at 100 µM (PC-3 cells [1]) | effect on DNA synthesis (in words) (PC-3 cells [1]) | EC50 (Nav1.5) | IC50 (C4-2 cells) | IC50 (DU-145) | IC50 (LNCaP) | IC50 (PC-3M) | IC50 (PC3) | decrease of PSA secretion on a per cell basis [4] | also measured
CCN(CC)CC(=O)Nc1c(C)cccc1C [lidocaine, reference compound] |  |  |  |  |  |  |  |  |  |  |  |  |  | growth of C4-2 cells (in words) (C4-2 cells): mildly stimulatory
O=C1NC(=O)C(c2ccccc2)(c2ccccc2)N1 [phenytoin, reference compound] | -23.8% | -13.9% | -21.8% | -12.5% | 30.8% | stimulatory | > 200 µM |  |  |  |  |  |  | inhibition of SACF compared to the DMSO/EtOH control plates [2]: 25.7%; IC50 [3]: 40 µM; inhibition at 100 µM ([4]; Homo sapiens, C4-2, 100 μM): 17.8%
CCCCCCCC1(c2ccccc2)NC(=O)NC1=O (stereo not shown) [Compound 44] | 12.8% | 26.6% | 32.7% | 55% | 82% | inhibited DNA synthesis better than phenyloin at all dosages tested | 29.8 ± 4.2 µM | 67.4 ± 1.3 µM | 35.6 ± 2.6 µM | 71.8 ± 1.8 µM | 58.4 µM | 66 ± 0.1 µM | 14.9% | % Inhibition of PC3 Cells (PC-3 cells [1]; 40 μM): 55.09%; inhibition of 3H-BTX-B binding in comparison to phenytoin [3]: effective inhibition; IC50 [3]: 5 ± 1 µM; selectivity of growth inhibition (in words) ([5]; long-term growth assay): cell selective inhibition of growth
CCCCCCCC(O)(C(N)=O)c1cccc(Cl)c1 (stereo not shown) [Compound 1] |  |  |  |  |  |  |  | 51.3 ± 0.2 µM | 56 ± 0.7 µM | 72.2 ± 0.1 µM | 61.9 ± 0.1 µM | 66 ± 0.7 µM | 42.5% | growth of C4-2 cells (in words) (C4-2 cells): remarkable inhibition of growth; inhibition in 3-D growth (SACF) as compared to phenytoin [2]: approximately 87.2%; cells' growth, % of controls (maximum inhibition) ([5]; normalized to day 7 DMSO control): 20-25 % of controls; Number of mice with impaired balance on the rotating rod/total # of animals tested (mice; 30 mg/kg i.p., 0.5 hours): 0/4; Number of mice with impaired balance on the rotating rod/total # of animals tested (mice; 30 mg/kg i.p., 4.0 hours): 0/2; Number of mice with impaired balance on the rotating rod/total # of animals tested (mice; 100 mg/kg i.p., 0.25 hours): 0/4^a; Number of mice with impaired balance on the rotating rod/total # of animals tested (mice; 100 mg/kg i.p., 0.5 hours): 1/8; Number of mice with impaired balance on the rotating rod/total # of animals tested (mice; 100 mg/kg i.p., 1.0 hours): 1/8; Number of mice with impaired balance on the rotating rod/total # of animals tested (mice; 300 mg/kg i.p., 0.5 hours): 3/4; Number of mice with impaired balance on the rotating rod/total # of animals tested (mice; 300 mg/kg i.p., 4.0 hours): 0/2; tolerated dose (mice; mice, i.p., acute): up to 300 mg/kg; IC50 ([4]; Homo sapiens, C4-2, dose-response curve, read-out: IC50 for reducing PSA): ~10 µM; inhibition in 2-D growth assays (cell growth in 2-D): 66.3%
NC1=N[C@H](O)[C@H]2[C@H]3O[C@]4(O)O[C@@H]([C@@H](O)[C@@]2(N1)[C@@H]4O)[C@]3(O)CO [TTX, Tetrodotoxin] |  |  |  |  |  |  |  |  |  |  |  |  |  | reduction of invasiveness of PC-3 cells (PC-3 cells [6]): 31%; inhibition of invasiveness of MAT-LyLu cells in vitro (MAT-LyLu cells): up to 50%
CCCCCCCC(O)(C(N)=O)c1ccc(Cl)cc1 (stereo not shown) [Compound 2] | -3.61% | 25.2% | 44.6% | 48.9% | 96.2% | inhibited DNA synthesis better than phenyloin at all dosages tested | 12.7 ± 2.7 µM | 61.1 ± 0.1 µM | 67.2 ± 0.1 µM | 64.1 ± 4.3 µM | 50 µM | 66.8 ± 1.2 µM | 41.8% | enhanced inhibition using SACF, % of phenytoin [2]: 41.5 % of phenyloin; inhibition in 3-D growth (SACF) as compared to phenytoin [2]: ~62%; inhibition of 3H-BTX-B binding in comparison to phenytoin [3]: effective inhibition; inhibition in 2-D growth assays (cell growth in 2-D): 42.3%
CCCCCCCC(O)(C(N)=O)c1ccc(F)cc1 (stereo not shown) [Compound 9] |  |  |  |  |  |  | 34.2 ± 7.4 µM |  |  |  |  |  |  | 
